Consider 1 molecule from patent US20020159981A1, “Methods of controlling proliferation and differentiation of stem and progenitor cells” (Gamida-Cell Ltd., priority 1999, published 2002).

Assay [1] concerns Murine erythroleukemia cells (MEL). In words: HMBA-induced differentiation and growth of erythroleukemic cells. The following applies: day 3 (Table 2). The assay is classed as cell-based, mouse. The procedure:
Mouse erythroleukemic cells (MEL): MEL cells are erythroblast like cells. Following treatment with several chemicals (differentiation inducers) the cells undergo erythroid differentiation and accumulate hemoglobin. […] At day 3 of the culture, the total number of cells and the percentage of hemoglobin-containing cells were determined (Table 2).
On day 3, total cell number and hemoglobin containing (benzidine positive) cells were determined.

Another assay has as its system Cord blood-derived cells. Description: Preservation of stem cells: storage and separation with TEPA, then long-term culture. The assay is classed as cell-based. The following applies: cells stored 24 hours at 4° C. and separated with 10 μM TEPA; without TEPA 5 weeks. The procedure: Cord blood-derived cells were collected and stored (unseparated) for 24 hours, at 4° C., either in the presence or absence of 10 μM TEPA. CD34^+ cells were then separated using either 10 μM TEPA-PBS buffer or TEPA free PBS buffer, respectively. Then, cells were grown in long-term cultures in the presence of 10 μM TEPA.

For a further assay, the system named is embryonal stem cells. Description: Embryonal stem cell culture: differentiation and proliferation. The assay is classed as cell-based. Here is the method: Thus, embryonal stem cells were cultured for 3-4 days essentially as described in (66), in the presence of LIF (20-100 ng/ml) or TEPA (10-20 μM) and their differentiation compared to non-treated control cells.

A further assay relates to NOD/SCID mice. Description: Engraftment of SCID mice by ex-vivo expanded human hematopoietic cells. Format: in vivo. Particulars: for Engraftment Colonies: 2 weeks ex-vivo, TEPA + Cytokines. Here is the method:
Engraftment of SCID mice by ex-vivo expanded human hematopoietic cells: Cord blood purified CD34^+ cells either fresh or following 2 or 4 weeks of ex-vivo culture (plus or minus TEPA) were injected into NOD/SCID mice essentially as described in (56). After 4 weeks, the mice were sacrificed and their femora and tibias were excised and the bone marrow flushed with a syringe fitted with a 25 gauge needle. A single cell suspension was prepared, the cells were washed and an aliquot counted with Trypan blue. In order to quantitate engrafted cells of human origin, cells were stained with FITC-conjugated anti CD45 antibodies and PE-conjugated either anti CD34, CD19 or CD33 antibodies. Anti CD45 antibodies recognize human, but not mouse, cells, and thus, indicates the human origin of the cells. The proliferation and differentiation potential of the engrafted cells was assayed by cloning bone marrow cells in semi-solid medium under conditions that allow specifically growth of human derived colonies essentially as described in (56).

In assay [2] the test system is lethally irradiated Balb/c×C57B1/6 F1 mice. Description: Hematopoietic reconstitution of lethally irradiated mice with ex-vivo expanded bone marrow cells. The assay is classed as in vivo. Particulars: compared to fresh cells or cells expanded without TEPA. The procedure:
Hematopoietic reconstitution of lethally irradiated mice—fresh vs. ex-vivo expanded cells: Three month old female Balb/c×C57B1/6 F1 mice were lethally irradiated (1000 rad) and transplanted one day later with 1×10^5 fresh bone marrow cells or the yield of 1×10^5 bone marrow cells expanded ex-vivo either with or without TEPA for 3 to 5 weeks, as detailed in Table 7. Peripheral blood WBC counts were performed on weekly basis.

In the case of `NCCNCCNCCNCCN` [TEPA, tetraethylenepentamine], the “HMBA-induced differentiation of MEL cells” value in assay [1] is reported as “inhibited”. In the assay with Cord blood-derived cells, this molecule came in with a time cultures expanded of 8 weeks. Besides, the “maintaining the undifferentiative phenotype of embryonal stem cells” value in the assay on embryonal stem cells is “can replace LIF”. The “Engraftment Colonies” value with NOD/SCID mice (CB 2 10% FCS (first listed)) was 330 per 2 × 10^5 SCID BM cells; with NOD/SCID mice (CB 3 10% FCS), 100 per 2 × 10^5 SCID BM cells; in the assay with NOD/SCID mice (CB 6 1% FCS) it was 350 per 2 × 10^5 SCID BM cells; in the assay with NOD/SCID mice (CB 6 10% FCS) it was 420 per 2 × 10^5 SCID BM cells. Further, the “cord blood samples that succeeded to engraft the animals” value with NOD/SCID mice (of 6 samples expanded ex-vivo, without TEPA 2 out of 6) is listed as 6. Besides, in assay [2], the WBC recovery result was “faster”.
